Experimental data: patent US9950073B2, “Peptide sequence design and use thereof for peptide-mediated siRNA delivery” (Positec Power Tools (Suzhou) Co Ltd, priority 2011, dated 2018)

Test system: siRNA
Assay: Fluorescence spectroscopy of peptide-siRNA interaction
Type: binding
Experimental: The peptide C6M1 was used in this experiment to study the interaction between peptide and siRNA using fluorescence spectroscopy method. C6M1 has four tryptophan amino acids which can be used as fluorescence probe. […] A blue shift from 355 to 330 nm was also observed in molar ratios of less than 40:1, clearly at 20:1 and 10:1, probably due to the change in the environment of tryptophan by adding more hydrophilic siRNA molecules.
A similar experiment was also performed by tracking the fluorescence property of labeled siRNA, interacting with C6M1. […] The red shift could also be an indicator of a change in the siRNA environment and/or conformational change in siRNA structure upon interacting with peptides.

RLWRLLWRLWRRLWRLLR (C6M1)
tryptophan fluorescence intensity of C6M1 on adding siRNA (fixed C6M1 concentration, more siRNA added): intensity of fluorescence decreased | fluorescence spectra of labeled siRNA (low molar ratios of 2:1 and 4:1): no significant change | fluorescence intensity of labeled siRNA (molar ratios of 10:1 and 20:1): intensity decreased | blue shift of fluorescence (molar ratios of less than 40:1, clearly at 20:1 and 10:1): 355 to 330 nm
